Laboratory results taken from patent US11534457B2, “Use of dextran sulfate” (priority 2017, dated 2022).

Tested on: Mouse motor neurons (Aruna)
Experiment: Gene expression array and pathway analysis, motor neurons
Assay type: cell-based
Experimental: For each cell line, n=8×25 cm^2 culture flasks were set up. Two flasks were harvested for each cell type on the day of treatment (24 hours after seeding). This represents the Day0 time point. From the remaining flasks, three flasks were treated with Control Medium and three were treated with Culture Medium (CM) containing LMW-DS to give a final concentration of 0.01 mg/ml. Cells from the treated flasks were collected after 48 hours. Therefore the collected data represent (a) untreated cells (Day0 Controls and Day2 Controls) and (b) cells treated with LMW-DS for 48 hours (Day2 LMW-DS treated).
25 cm^2 flasks were coated by adding 2 ml per flask of a solution of 50 μg/ml poly-d-lysine in Hank's balanced salt solution (HBSS) and incubating overnight at 37° C. in the dark. Flasks were washed with cell culture water and air-dried for 30 min in the dark. Flasks were coated by adding 1 ml per flask of a solution of 25 μg/ml laminin in phosphate-buffered saline (PBS) and incubating for 2 hour at 37° C. in the dark. The laminin flasks were washed with PBS three times before plating cells.
The culture medium was prepared according to Table 5.
Medium (see Table 5) was pre-warmed to 37° C. Cells were thawed in a 37° C. water bath for no longer than 2 min. 9 ml of media was gently added drop-wise. The cell suspension was mixed by inverting the tube carefully twice. The cells were counted with a Cellometer. The cells were centrifuged for 5 minutes at 200×g. Supernatant was removed (to the last 0.5 ml) and cells were gently resuspended by trituration. The cells from the 8 vials were mixed and distributed equally into the previously coated 25 cm^2 flasks (n=8). Cells were incubated at 37° C. with 5% CO2 for 24 hours before treatment.
LMW-DS was provided at a stock concentration of 20 mg/ml and was kept in a temperature monitored refrigerator at 4° C. A fresh […]LMW-DS stock (1.0 mg/ml) was prepared in sterile DMEM-F12. The concentrated drug stock was sterile filtered and added to the respective culture media (19.6 ml CM and 0.4 ml LMW-DS stock solution). The Control was made using 19.6 ml CM and 0.4 ml of DMEM-F12. LMW-DS and CM were added to the respective flasks (5 ml each) to reach the 0.01 mg/ml concentration of LMW-DS in each dish with a total of 10 ml CM each.
CM was aspirated into a clean and labelled 15 ml Falcon tube. The flasks (without culture medium) were placed into the −80° C. freezer for 30 minutes. The CM in the Falcon tubes were spun at 3000×g for 5 minutes. Supernatant was removed and the small pellet was re-suspended in 2.5 ml Trizol:Water (4:1) solution at room temperature (RT, […]).
Two aliquots of 1 ml lysate was removed from each sample and 200 μl of chloroform was added to each (0.2 ml of chloroform per 1 ml of TRIzol Reagent used during the cell lysis step) and the tube was shaken vigorously. Samples were stored at RT for 2-3 minutes and subsequently centrifuged at 12,000×g for 15 minutes at 4° C.
The expression data were downloaded into separate files for each cell line. The ‘Background corrected’ expression is the data from the “gProcessedSignal” of the arrays that is the result of the background signal extracted from the actual signal of the relevant probe. This is the most often used variable in array analysis. The background corrected signal was log 2 transformed for all samples for statistical analysis. To reduce the false discovery rate in the samples, the signals that were below ‘expression level’ were removed. The ‘below expression’ level was set at 5 for the log 2 transformed expression values.
Based on the expression pattern of the Control probes on each array it was decided to carry out Median Centering for all arrays before analysis to reduce the variability of the results. […]

“low molecular weight dextran sulfate [LMW-DS]” was tested, and the HtrA2 (0.01 mg/ml, 48 h) was “inhibition”, the amyloid-β production (0.01 mg/ml, 48 h) was “preventing amyloid-β production” and the “apoptosis pathway (F in FIG. 18)” value (0.01 mg/ml, 48 h) was “preventing and inhibiting apoptosis”. For the same substance, the “cellular attachment from expression patterns (neurons)” value (0.01 mg/ml, 48 h) was “significant inhibition of cellular attachment”, the fatty acid oxidation (0.01 mg/ml, 48 h) was “inhibiting fatty acid oxidation” and the “inhibition of glutamate production at baseline” value (0.01 mg/ml, 48 h) was “not affected”. For the same substance, the “level of H2O2” value (0.01 mg/ml, 48 h) was “reduced”, the “number of genes differentially expressed, D0 control to the D2 LMW-DS treated samples (second statement)” value (0.01 mg/ml, 48 h) was 425 genes and the “number of genes differentially expressed, D0 control vs D2 LMW-DS treated” value (0.01 mg/ml, 48 h) was 315 genes. The “number of genes: abolished nutrient effect / no effect” value (0.01 mg/ml, 48 h) was 177, the “number of genes: abolished nutrient effect / significant downregulation” value (0.01 mg/ml, 48 h) was 47 and the “number of genes: abolished nutrient effect / significant upregulation” value (0.01 mg/ml, 48 h) was 40. The “number of genes: abolished nutrient effect / total” value (0.01 mg/ml, 48 h) was 264, the “number of genes: enhanced response to nutrients / significant downregulation” value (0.01 mg/ml, 48 h) was 36 and the “number of genes: enhanced response to nutrients / significant upregulation” value (0.01 mg/ml, 48 h) was 103. The “number of genes: enhanced response to nutrients / total” value (0.01 mg/ml, 48 h) was 139, the “number of genes: new effect induced by LMW-DS / no effect” value (0.01 mg/ml, 48 h) was 108 and the “number of genes: new effect induced by LMW-DS / significant downregulation” value (0.01 mg/ml, 48 h) was 375. For the same substance, the “number of genes: new effect induced by LMW-DS / significant upregulation” value (0.01 mg/ml, 48 h) was 71, the “number of genes: new effect induced by LMW-DS / total” value (0.01 mg/ml, 48 h) was 554 and the “number of genes: not different from control / significant downregulation” value (0.01 mg/ml, 48 h) was 104. The “number of genes: not different from control / significant upregulation” value (0.01 mg/ml, 48 h) was 75, the “number of genes: not different from control / total” value (0.01 mg/ml, 48 h) was 179 and the “number of genes: total / no effect” value (0.01 mg/ml, 48 h) was 285. The “number of genes: total / significant downregulation” value (0.01 mg/ml, 48 h) was 562, the “number of genes: total / significant upregulation” value (0.01 mg/ml, 48 h) was 289 and the “number of genes: total / total” value (0.01 mg/ml, 48 h) was 1136. The “upstream regulator AGT: activation z-score” value (D0 to LMW-DS treatment) was 2.631, the “upstream regulator AGT: predicted activation state relative D2 control” value (D0 to LMW-DS treatment) was “Activated” and the “upstream regulator BMP4: activation z-score” value (D0 to LMW-DS treatment) was 0.972. For the same substance, the “upstream regulator BMP4: predicted activation state relative D2 control” value (D0 to LMW-DS treatment) was “More activated relative to control”, the “upstream regulator BMP6: activation z-score” value (D0 to LMW-DS treatment) was 0.13 and the “upstream regulator BMP6: predicted activation state relative D2 control” value (D0 to LMW-DS treatment) was “More activated relative to control”. For the same substance, the “upstream regulator BMP7: activation z-score” value (D0 to LMW-DS treatment) was 1.092, the “upstream regulator BMP7: predicted activation state relative D2 control” value (D0 to LMW-DS treatment) was “More activated relative to control” and the “upstream regulator INHA: activation z-score” value (D0 to LMW-DS treatment) was 0.588. For the same substance, the “upstream regulator INHA: predicted activation state relative D2 control” value (D0 to LMW-DS treatment) was “More activated relative to control”.
